Experimental data reported in patent publication US20080221086A1, “Novel Inhibitors of Glutaminyl Cyclase” (PROBIODRUG AG, priority 2006, published 2008).
pIC50: −log10 of the molar value.

Target: hQC (Homo sapiens, UniProt Q16769)
Assay: Fluorometric assay of glutaminyl cyclase (QC) inhibition, H-Gln-βNA or H-Gln-AMC substrate
Assay type: biochemical
Conditions: read-out: IC50
Outline: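 Ki values were obtained by fitting progress curves to a competitive-inhibition equation, and the rapid screen used 4 mM inhibitor with substrate at 1 KM. Both readouts coupled pyroglutamyl aminopeptidase at pH 8.0 and 30° C: H-Gln-βNA at 0.2 mM (ex/em 320/410 nm) or H-Gln-AMC (380/460 nm).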

Chain of hQC (Q16769 29-361): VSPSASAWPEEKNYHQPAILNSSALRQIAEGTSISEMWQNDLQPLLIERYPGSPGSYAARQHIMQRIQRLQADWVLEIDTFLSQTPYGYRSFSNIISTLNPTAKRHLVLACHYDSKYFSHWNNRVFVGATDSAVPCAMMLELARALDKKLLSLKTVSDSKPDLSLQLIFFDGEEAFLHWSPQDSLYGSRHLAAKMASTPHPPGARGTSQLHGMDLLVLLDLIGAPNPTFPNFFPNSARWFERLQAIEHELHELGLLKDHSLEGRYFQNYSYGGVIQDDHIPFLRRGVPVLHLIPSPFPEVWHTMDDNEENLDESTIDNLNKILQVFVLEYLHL

| SMILES | pIC50 |
| --- | --- |
| O=C(CN=C1NC(=S)N(c2ccc3nc[nH]c3c2)C1c1c(F)ccc(Cl)c1F)N1CCCCC1 (centres unmarked) [Compound 185, 2-(1-(1H-benzo[d]imidazol-6-yl)-5-(3-chloro-2,6-difluorophenyl)-2-thioxoimidazolidin-4-ylideneamino)-1-(piperidin-1-yl)ethanone] | 6.40 |
| C/N=C1/NC(=O)N(c2ccc3[nH]cnc3c2)C1c1ccc2c(c1)OCCO2 (centres unmarked) [Compound 123, 1-(1H-Benzoimidazol-5-yl)-5-(2,3-dihydro-benzo1,4dioxin-6-yl)-4-methylimino-imidazolidin-2-one] | 6.40 |
| Cc1ccc2occ(C3/C(=N/C4CCCCC4O)NC(=S)N3c3ccc4[nH]cnc4c3)c(=O)c2c1 (centres unmarked) [Compound 203, 3-{3-(1H-Benzoimidazol-5-yl)-5-2-hydroxy-cyclohexylimino-2-thioxo-imidazolidin-4-yl}-6-methyl-chromen-4-one] | 5.24 |
| CN1CCCN(C(=O)C/N=C2/NC(=O)N(c3ccc4[nH]cnc4c3)C2c2ccc3[nH]ccc3c2)CC1 (centres unmarked) [Compound 307, 1-(1H-Benzoimidazol-5-yl)-5-(1H-indol-5-yl)-4-2-(4-methyl-1,4diazepan-1-yl)-2-oxo-ethylimino-imidazolidin-2-one] | 5.66 |
| O=C1N/C(=N\CCC(c2ccccc2)c2ccccc2)C(c2ccccc2)N1CCCn1ccnc1 (centres unmarked) [Compound 105, 4-3,3-Diphenyl-propylimino-1-(3-imidazol-1-yl-propyl)-5-phenyl-imidazolidin-2-one] | 5.51 |
| O=C(C/N=C1/NC(=O)N(c2ccc3[nH]cnc3c2)C1c1ccc2nsnc2c1)N1CCC(O)C1 (centres unmarked) [Compound 282, 1-(1H-Benzoimidazol-5-yl)-5-benzo[c][1,2,5]thiadiazol-5-yl-4-2-(3-hydroxy-pyrrolidin-1-yl)-2-oxo-ethylimino-imidazolidin-2-one] | 5.31 |
| COC(=O)C(C)/N=C1\NC(=O)N(c2ccc3[nH]cnc3c2)C1C1CCC(C)=CC1C (centres unmarked) [Compound 206, Methyl 2-(1-(1H-benzo[d]imidazol-5-yl)-5-(2,4-dimethylcyclohex-3-enyl)-2-oxoimidazolidin-4-ylideneamino)propanoate] | 5.12 |
| Cc1cccc(C2/C(=N\Cn3nnc4ccccc43)NC(=O)N2c2ccc3[nH]cnc3c2)c1 (centres unmarked) [Compound 324, 1-(1H-Benzoimidazol-5-yl)-4-benzotriazol-1-ylmethylimino-5-m-tolyl-imidazolidin-2-one] | 5.51 |
| O=C1N/C(=N/Cc2ccc(Cl)cc2)C(c2ccccc2)N1CCCn1ccnc1 (centres unmarked) [Compound 18, 4-4-Chloro-benzylimino-1-(3-imidazol-1-yl-propyl)-5-phenyl-imidazolidin-2-one] | 5.24 |
| O=C(C/N=C1\NC(=S)N(c2ccc3[nH]cnc3c2)C1c1cc(Br)cc(Br)c1)N1CCSCC1 (centres unmarked) [Compound 125, 2-(1-(1H-benzo[d]imidazol-5-yl)-5-(3,5-dibromophenyl)-2-thioxoimidazolidin-4-ylideneamino)-1-thiomorpholinoethan-one] | 5.66 |
| O=C1N/C(=N/Cc2ccccc2)C(c2ccc(Cl)c(F)c2)N1CCCn1ccnc1 (centres unmarked) [Compound 96, 4-Benzylimino-5-(4-chloro-3-fluoro-phenyl)-1-(3-imidazol-1-yl-propyl)-imidazolidin-2-one] | 5.17 |
| O=C1CCCN1CCC/N=C1/NC(=O)N(c2ccc3[nH]cnc3c2)C1c1ccc2nsnc2c1 (centres unmarked) [Compound 155, 1-(1H-Benzoimidazol-5-yl)-5-benzo[c][1,2,5]thiadiazol-5-yl-4-3-(2-oxo-pyrrolidin-1-yl)-propylimino-imidazolidin-2-one] | 8.40 |
| O=C(C/N=C1/NC(=O)N(c2ccc3[nH]cnc3c2)C1c1ccc(Cl)c(F)c1)N1CCCCC1 (centres unmarked) [Compound 302, 1-(1H-Benzoimidazol-5-yl)-5-(4-chloro-3-fluoro-phenyl)-4-2-oxo-2-piperidin-1-yl-ethylimino-imidazolidin-2-one] | 5.51 |
| O=C(C/N=C1/NC(=O)N(c2ccc3[nH]cnc3c2)C1c1cccc(Br)c1)N1CCSCC1 (centres unmarked) [Compound 342, 1-(1H-Benzoimidazol-5-yl)-5-(3-bromo-phenyl)-4-2-oxo-2-thiomorpholin-4-yl-ethylimino-imidazolidin-2-one] | 6.40 |
| O=C1N/C(=N/Cc2ccccc2)C(c2ccccc2)N1CCCn1ccnc1 (centres unmarked) [Compound 92, 4-Benzylimino-1-(3-imidazol-1-yl-propyl)-5-phenyl-imidazolidin-2-one] | 5.07 |
| O=C(CN=C1NC(=O)N(c2ccc3[nH]cnc3c2)C1c1ccc(Cl)c(F)c1)N1CCC(O)C1 (centres unmarked) [Compound 281, 1-(1H-Benzoimidazol-5-yl)-5-(4-chloro-3-fluoro-phenyl)-4-2-(3-hydroxy-pyrrolidin-1-yl)-2-oxo-ethylimino-imidazolidin-2-one] | 5.17 |
| O=C1N/C(=N/C2CC2)C(c2ccc(Cl)c(F)c2)N1c1ccc2[nH]cnc2c1 (centres unmarked) [Compound 117, 1-(1H-Benzoimidazol-5-yl)-5-(4-chloro-3-fluoro-phenyl)-4-cyclopropylimino-imidazolidin-2-one] | 5.89 |
| CCCCC1C(=Nc2ccc(Oc3ccccc3)cc2)NC(=O)N1CCCn1ccnc1 (centres unmarked) [Compound 103, 5-Butyl-1-(3-imidazol-1-yl-propyl)-4-4-phenoxy-phenylimino-imidazolidin-2-one] | 5.03 |

| SMILES | pIC50 |
| --- | --- |
| O=C1NC(c2cc(F)cc(F)c2)/C(=N\CC(O)c2ccccc2)N1c1ccc2[nH]cnc2c1 (centres unmarked) [Compound 153, 1-(1H-Benzoimidazol-5-yl)-5-(3,5-difluoro-phenyl)-4-2-hydroxy-2-phenyl-ethylimino-imidazolidin-2-one] | 6.40 |
| O=C1N/C(=N\Cc2ccccc2)C(c2cccc(F)c2F)N1CCCn1ccnc1 (centres unmarked) [Compound 94, 4-Benzylimino-5-(2,3-difluoro-phenyl)-1-(3-imidazol-1-yl-propyl)-imidazolidin-2-one] | 5.24 |
| Fc1ccc(/N=C2\NC(=S)N(c3ccc4[nH]cnc4c3)C2c2ccnc3ccccc23)cc1 (centres unmarked) [Compound 202, 1-(1H-Benzoimidazol-5-yl)-4-4-fluoro-phenylimino-5-quinolin-4-yl-imidazolidine-2-thione] | 5.12 |
| S=C1N/C(=N\C(Cc2ccccc2)c2ccccc2)C(C2=CCCCC2)N1c1ccc2[nH]cnc2c1 (centres unmarked) [Compound 240, 1-(1H-Benzoimidazol-5-yl)-5-cyclohex-1-enyl-4-1,2-diphenyl-ethylimino-imidazolidine-2-thione] | 5.07 |
| O=C1N/C(=N/CCc2cccs2)C(c2ccccc2)N1CCCn1ccnc1 (centres unmarked) [Compound 38, 1-(3-Imidazol-1-yl-propyl)-5-phenyl-4-2-thiophen-2-yl-ethylimino-imidazolidin-2-one] | 5.12 |
| S=C1N/C(=N\C2CCCC2)C(c2ccc(Cl)cc2)N1c1ccc2[nH]cnc2c1 (centres unmarked) [Compound 272, 1-(1H-Benzoimidazol-5-yl)-5-(4-chloro-phenyl)-4-cyclopentylimino-imidazolidine-2-thione] | 5.07 |
| O=C(C/N=C1\NC(=S)N(c2ccc3[nH]cnc3c2)C1c1ccccc1C(F)(F)F)N1CCCCC1 (centres unmarked) [Compound 144, 2-1-(1H-Benzoimidazol-5-yl)-2-thioxo-5-(2-trifluoromethyl-phenyl)-imidazolidin-(4Z)-ylideneamino-1-piperidin-1-yl-ethanone] | 5.89 |
| CC(C)CC(C)N=C1NC(=O)N(c2ccc3[nH]cnc3c2)C1c1ccccc1C(F)(F)F (centres unmarked) [Compound 298, 1-(1H-Benzoimidazol-5-yl)-4-1,3-dimethyl-butylimino-5-(2-trifluoromethyl-phenyl)-imidazolidin-2-one] | 5.17 |
| O=C1N/C(=N\Cc2ccccc2)C(c2ccccc2Cl)N1CCCn1ccnc1 (centres unmarked) [Compound 97, 4-Benzylimino-5-(2-chloro-phenyl)-1-(3-imidazol-1-yl-propyl)-imidazolidin-2-one] | 5.40 |
| S=C1N/C(=N/Cn2nnc3ccccc32)C(c2ccc3c(c2)OCCO3)N1c1ccc2[nH]cnc2c1 (centres unmarked) [Compound 217, 1-(1H-Benzoimidazol-5-yl)-4-benzotriazol-1-ylmethylimino-5-(2,3-dihydro-benzo1,4dioxin-6-yl)-imidazolidine-2-thione] | 6.40 |
| OC1CCCCC1N=C1NC(=S)N(c2ccc3[nH]cnc3c2)C1c1ccc2nsnc2c1 (centres unmarked) [Compound 312, 1-(1H-Benzoimidazol-5-yl)-5-benzo[c][1,2,5]thiadiazol-5-yl-4-2-hydroxy-cyclohexylimino-imidazolidine-2-thione] | 5.03 |
| O=C(C/N=C1\NC(=O)N(c2ccc3[nH]cnc3c2)C1c1ccnc2ccccc12)N1CCC(O)CC1 (centres unmarked) [Compound 343, 1-(1H-Benzoimidazol-5-yl)-4-2-(4-hydroxy-piperidin-1-yl)-2-oxo-ethylimino-5-quinolin-4-yl-imidazolidin-2-one] | 5.17 |
| O=C1N/C(=N\C2CCCC2)C(c2ccc3ccccc3c2)N1c1ccc2[nH]cnc2c1 (centres unmarked) [Compound 171, 1-(1H-Benzoimidazol-5-yl)-4-cyclopentylimino-5-naphthalen-2-yl-imidazolidin-2-one] | 8.40 |
| CCCCC1/C(=N/Cc2ccc(Cl)cc2)NC(=O)N1CCCn1ccnc1 (centres unmarked) [Compound 22, 5-Butyl-4-4-chloro-benzylimino-1-(3-imidazol-1-yl-propyl)-imidazolidin-2-one] | 5.07 |
| S=C1N/C(=N\C2CCCCC2)C(c2cc3c(cc2Br)OCO3)N1c1ccc2nc[nH]c2c1 (centres unmarked) [Compound 266, 1-(3H-Benzoimidazol-5-yl)-5-(6-bromo-benzo1,3dioxol-5-yl)-4-cyclohexylimino-imidazolidine-2-thione] | 5.07 |
| FC(F)(F)c1ccccc1/N=C1\NC(=S)N(c2ccc3[nH]cnc3c2)C1C1=CCCCC1 (centres unmarked) [Compound 149, 1-(1H-Benzoimidazol-5-yl)-5-cyclohex-1-enyl-4-2-trifluoromethyl-phenylimino-imidazolidine-2-thione] | 5.17 |
| O=C1N/C(=N/CCc2c[nH]c3ccccc23)C(c2ccc(Cl)c(F)c2)N1CCCn1ccnc1 (centres unmarked) [Compound 54, 5-(4-Chloro-3-fluoro-phenyl)-1-(3-imidazol-1-yl-propyl)-4-2-(1H-indol-3-yl)-ethylimino-imidazolidin-2-one] | 5.51 |
